# Where “and” joins values, the source holds several entries; their conditions need not be identical. Equal values may be shown once.
# Assays:
# [1] = Clinical pharmacokinetics, 25 and 75 mg, compared to Adderall XR and Dexedrine Spansule; conditions: for concentration at 5 h / concentration at 6 h / concentration at 7 h / concentration at 8 h / concentration at 10 h / concentration at 12 h / concentration at 16 h / concentration at 24 h / concentration at 48 h / concentration at 72 h / L-lysine-d-amphetamine intact conjugate concentration / L-lysine-d-amphetamine intact conjugate AUCinf / L-lysine-d-amphetamine intact conjugate AUClast / L-lysine-d-amphetamine intact conjugate Cmax / L-lysine-d-amphetamine intact conjugate Tmax: human; for concentration at 5 h / concentration at 6 h / concentration at 7 h / concentration at 8 h / concentration at 10 h / concentration at 12 h / concentration at 16 h / concentration at 24 h / concentration at 48 h / concentration at 72 h: in vivo, po, L-lysine-d-amphetamine intact conjugate concentration
# [2] = test system: children with ADHD; assay: Pediatric crossover efficacy study, SKAMP-Deportment score
# [3] = Intranasal bioavailability of peptide amphetamine conjugates (HCl salts, ELISA); conditions: rat, parenteral routes
# [4] = target: T1, human recombinant norepinephrine transport binding sites (NET) (Homo sapiens, UniProt P23975); assay: Radioligand binding assay, norepinephrine transporter (NovaScreen)
# T1 construct: NovaScreen, Hanover, Md; (contract laboratory that ran the assay)
# [5] = Kitchen tests: water, acid (vinegar), base (baking powder, baking soda), boiling; format: physicochemical; conditions: for free amphetamine released: heated to boiling for 20-60 minutes
# Method: “Kitchen tests” were performed in anticipation of attempts by illicit chemists to release free amphetamine from the amphetamine conjugate.
# [6] = 75 mg, oral 75 mg L-lysine-d-amphetamine, individual subjects
# [7] = 75 mg, oral 75 mg L-lysine-d-amphetamine, mean
# [8] = oral 25 mg L-lysine-d-amphetamine, individual subjects
# [9] = oral 75 mg L-lysine-d-amphetamine, individual subjects
# T1 sequence (P23975 whole entry): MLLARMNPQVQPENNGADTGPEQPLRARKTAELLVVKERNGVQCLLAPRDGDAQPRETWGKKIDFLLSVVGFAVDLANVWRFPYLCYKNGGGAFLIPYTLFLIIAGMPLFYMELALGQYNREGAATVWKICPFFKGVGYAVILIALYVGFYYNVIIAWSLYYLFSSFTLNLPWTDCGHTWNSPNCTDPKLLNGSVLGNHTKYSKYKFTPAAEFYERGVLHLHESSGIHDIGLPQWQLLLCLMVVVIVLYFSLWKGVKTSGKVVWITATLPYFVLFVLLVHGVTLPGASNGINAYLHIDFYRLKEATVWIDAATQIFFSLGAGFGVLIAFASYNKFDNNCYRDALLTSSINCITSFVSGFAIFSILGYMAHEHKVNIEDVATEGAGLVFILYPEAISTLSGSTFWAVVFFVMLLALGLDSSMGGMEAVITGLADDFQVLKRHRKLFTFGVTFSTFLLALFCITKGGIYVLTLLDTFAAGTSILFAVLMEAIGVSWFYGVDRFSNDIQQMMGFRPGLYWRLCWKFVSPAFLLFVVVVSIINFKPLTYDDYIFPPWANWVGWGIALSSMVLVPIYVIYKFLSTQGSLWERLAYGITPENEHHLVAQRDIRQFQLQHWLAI
smiles,measurement,setting,value
"CC(Cc1ccccc1)NC(=O)C(N)CCCCN [L-lysine-d-amphetamine, 2,6-diaminohexanoic acid-(1-methyl-2-phenylethyl)-amide]",concentration at 5 h,"[1]; 75 mg, oral 75 mg L-lysine-d-amphetamine, 5 h, individual subjects",0 µg/mL
same,concentration at 5 h,"[1]; 75 mg, oral 75 mg L-lysine-d-amphetamine, 5 h, mean",0 µg/mL
same,concentration at 6 h,"[1]; 75 mg, oral 75 mg L-lysine-d-amphetamine, 6 h, individual subjects",0 µg/mL
same,concentration at 6 h,"[1]; 75 mg, oral 75 mg L-lysine-d-amphetamine, 6 h, mean",0 µg/mL
same,concentration at 7 h,"[1]; 75 mg, oral 75 mg L-lysine-d-amphetamine, 7 h, individual subjects",0 µg/mL
same,concentration at 7 h,"[1]; 75 mg, oral 75 mg L-lysine-d-amphetamine, 7 h, mean",0 µg/mL
same,concentration at 8 h,"[1]; 75 mg, oral 75 mg L-lysine-d-amphetamine, 8 h, individual subjects",0 µg/mL
same,concentration at 8 h,"[1]; 75 mg, oral 75 mg L-lysine-d-amphetamine, 8 h, mean",0 µg/mL
same,concentration at 10 h,"[1]; 75 mg, oral 75 mg L-lysine-d-amphetamine, 10 h, individual subjects",0 µg/mL
same,concentration at 10 h,"[1]; 75 mg, oral 75 mg L-lysine-d-amphetamine, 10 h, mean",0 µg/mL
same,concentration at 12 h,"[1]; 75 mg, oral 75 mg L-lysine-d-amphetamine, 12 h, individual subjects",0 µg/mL
same,concentration at 12 h,"[1]; 75 mg, oral 75 mg L-lysine-d-amphetamine, 12 h, mean",0 µg/mL
same,concentration at 16 h,[1]; [6],0 µg/mL
same,concentration at 16 h,[1]; [7],0 µg/mL
same,concentration at 24 h,[1]; [6],0 µg/mL
same,concentration at 24 h,[1]; [7],0 µg/mL
same,concentration at 48 h,[1]; [6],0 µg/mL
same,concentration at 48 h,[1]; [7],0 µg/mL
same,concentration at 72 h,[1]; [6],0 µg/mL
same,concentration at 72 h,[1]; [7],0 µg/mL
same,L-lysine-d-amphetamine intact conjugate concentration,"[1]; oral 25 mg L-lysine-d-amphetamine, 1 h, individual subjects",9.2 ng/mL and 10.9 ng/mL and 11.2 ng/mL and 15.2 ng/mL and 12.5 ng/mL and 9.1 ng/mL and 2.7 ng/mL and 20.1 ng/mL and 10.5 ng/mL and 10.8 ng/mL
same,L-lysine-d-amphetamine intact conjugate concentration,"[1]; oral 25 mg L-lysine-d-amphetamine, 2 h, individual subjects",2.1 ng/mL and 3.1 ng/mL and 1.4 ng/mL and 2.5 ng/mL and 2.9 ng/mL and 1.9 ng/mL and 4.0 ng/mL and 2.3 ng/mL and 0 ng/mL and 1.7 ng/mL
same,L-lysine-d-amphetamine intact conjugate concentration,"[1]; oral 25 mg L-lysine-d-amphetamine, 3 h, individual subjects",0 ng/mL
same,L-lysine-d-amphetamine intact conjugate concentration,"[1]; oral 25 mg L-lysine-d-amphetamine, 4 h, individual subjects",0 ng/mL
same,L-lysine-d-amphetamine intact conjugate concentration,"[1]; oral 25 mg L-lysine-d-amphetamine, 5 h, individual subjects",0 ng/mL
same,L-lysine-d-amphetamine intact conjugate concentration,"[1]; oral 25 mg L-lysine-d-amphetamine, 6 h, individual subjects",0 ng/mL
same,L-lysine-d-amphetamine intact conjugate concentration,"[1]; oral 25 mg L-lysine-d-amphetamine, 7 h, individual subjects",0 ng/mL
same,L-lysine-d-amphetamine intact conjugate concentration,"[1]; oral 25 mg L-lysine-d-amphetamine, 8 h, individual subjects",0 ng/mL
same,L-lysine-d-amphetamine intact conjugate concentration,"[1]; oral 25 mg L-lysine-d-amphetamine, 10 h, individual subjects",0 ng/mL
same,L-lysine-d-amphetamine intact conjugate concentration,"[1]; oral 25 mg L-lysine-d-amphetamine, 12 h, individual subjects",0 ng/mL
same,L-lysine-d-amphetamine intact conjugate AUCinf,[1]; [8],0.01062 µg·h/mL and 0.01283 µg·h/mL and 0.01164 µg·h/mL and 0.01766 µg·h/mL and 0.01265 µg·h/mL and 0.009759 µg·h/mL and 0.01956 µg·h/mL and 0.0133 µg·h/mL
same,L-lysine-d-amphetamine intact conjugate AUClast,[1]; [8],0.00918 µg·h/mL and 0.01041 µg·h/mL and 0.01095 µg·h/mL and 0.01631 µg·h/mL and 0.01068 µg·h/mL and 0.008583 µg·h/mL and 0.005439 µg·h/mL and 0.01851 µg·h/mL and 0.01077 µg·h/mL and 0.01235 µg·h/mL
same,L-lysine-d-amphetamine intact conjugate Cmax,[1]; [8],0.00918 µg/mL and 0.0109 µg/mL and 0.0112 µg/mL and 0.0152 µg/mL and 0.0125 µg/mL and 0.00905 µg/mL and 0.00618 µg/mL and 0.0201 µg/mL and 0.0105 µg/mL and 0.0108 µg/mL
same,L-lysine-d-amphetamine intact conjugate Tmax,[1]; [8],1.5 h
same,L-lysine-d-amphetamine intact conjugate AUCinf,[1]; [9],0.0525 µg·h/mL and 0.087 µg·h/mL and 0.045 µg·h/mL and 0.033 µg·h/mL and 0.0449 µg·h/mL and 0.0523 µg·h/mL and 0.0342 µg·h/mL and 0.0314 µg·h/mL and 0.1029 µg·h/mL and 0.1117 µg·h/mL
same,L-lysine-d-amphetamine intact conjugate AUClast,[1]; [9],0.0512 µg·h/mL and 0.0861 µg·h/mL and 0.0442 µg·h/mL and 0.032 µg·h/mL and 0.0437 µg·h/mL and 0.0504 µg·h/mL and 0.0309 µg·h/mL and 0.0298 µg·h/mL and 0.1021 µg·h/mL and 0.1108 µg·h/mL
same,L-lysine-d-amphetamine intact conjugate Cmax,[1]; [9],0.048 µg/mL and 0.0801 µg/mL and 0.0405 µg/mL and 0.029 µg/mL and 0.0415 µg/mL and 0.0265 µg/mL and 0.0308 µg/mL and 0.0234 µg/mL and 0.127 µg/mL and 0.0889 µg/mL
same,L-lysine-d-amphetamine intact conjugate Tmax,[1]; [9],1.5 h
same,Intact conjugate as percent of total drug absorption (AUCinf-molar basis),"[1]; humans, oral, 25 mg",1.6%
same,Bioavailability over twelve hours vs Adderall XR® (d-amphetamine plus l-amphetamine levels),"[1]; humans, oral, 75 mg",approximately equivalent
same,Bioavailability over twelve hours vs Dexedrine Spansule®,"[1]; humans, oral, 75 mg",over twenty percent higher
same,Intact conjugate as percent of total drug absorption (AUCinf-molar basis),"[1]; humans, oral, 75 mg",2.0%
same,Bioavailability (AUCinf) of d-amphetamine vs both extended release amphetamine products,"[1]; humans, oral, 75 mg vs Adderall XR® 35 mg and Dexedrine Spansule® 30 mg",approximately equivalent
same,Time of peak levels of intact conjugate,"[1]; humans, oral, 25 and 75 mg",about one hour
same,Elimination of intact conjugate,"[1]; humans, oral, even at the highest dose",no detectable concentrations present by five hours
same,Duration of action,"[2]; children 6-12, SKAMP",12 h
same,Onset of significant effects post morning dose,"[2]; children 6-12, SKAMP",≤ 2 h
same,SKAMP-Deportment score compared to placebo,"[2]; children 6-12, once daily for 1 week each treatment",highly effective compared to placebo
same,Bioavailability by parenteral routes of administration,[3],decreased parenteral bioavailability
same,inhibition at 10 µM,[4]; 10^−5 mol/L,13.9%
same,inhibition at 0.1 µM,[4]; 10^−7 mol/L,-11.8%
same,inhibition at 0.001 µM,[4]; 10^−9 mol/L,8.15%
same,Specific binding to norepinephrine transport binding sites,[4]; 10^−9 to 10^−5 M,did not bind
same,Activity,"[4]; NE Transporter, radioligand [3H]-Nisoxetine, 10^−9 to 10^−5 M",No (No activity is defined as producing between −20% and 20% inhibition of radioligand binding (Novascreen).)
same,free amphetamine released,[5]; Baking Powder,0%
same,free amphetamine released,[5]; Baking Soda,0%
same,free amphetamine released,[5]; Tap Water,0%
same,free amphetamine released,[5]; Vinegar,0%
same,Release of free amphetamine in kitchen tests,"[5]; water, vinegar, baking powder, baking soda, boiling 20-60 minutes",no detectable free amphetamine

# Reference: patent US20090181898A1, “ABUSE-RESISTANT A[…]” (SHIRE LLC, priority 2002, published 2009)
